The compounds below were run against T1, MAGL (Homo sapiens, UniProt Q99685) (assay: 2-AG assay (MAGL inhibitory activity, hydrolysis of 2-arachidonoylglycerol followed by mass spectrometry)). Settings: 50 pM MAGL, 8 μM 2-arachidonoylglycerol, 15 min pre-incubation, 30 min incubation at RT.
T1 sequence (Q99685 1-303): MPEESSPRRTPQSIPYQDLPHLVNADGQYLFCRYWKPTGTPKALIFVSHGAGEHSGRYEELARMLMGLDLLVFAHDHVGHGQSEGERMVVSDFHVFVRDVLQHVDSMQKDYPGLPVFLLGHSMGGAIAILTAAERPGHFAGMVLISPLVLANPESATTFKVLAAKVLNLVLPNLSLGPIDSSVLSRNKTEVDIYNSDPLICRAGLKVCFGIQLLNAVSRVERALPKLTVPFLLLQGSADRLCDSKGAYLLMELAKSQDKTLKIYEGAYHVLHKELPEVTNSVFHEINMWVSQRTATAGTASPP
Assay type: biochemical
Protocol: Compounds were profiled for MAGL inhibitory activity by determining the enzymatic activity by following the hydrolysis of the natural substrate 2-arachidonoylglycerol resulting in arachidonic acid, which can be followed by mass spectrometry. This assay is hereinafter abbreviated “2-AG assay”.
The 2-AG assay was carried out in 384 well assay plates (PP, Greiner Cat# 784201) in a total volume of 20 μL. Compound dilutions were made in 100% DMSO (VWR Chemicals 23500.297) in a polypropylene plate in 3-fold dilution steps to give a final concentration range in the assay from 12.5 μM to 0.8 pM. 0.25 μL compound dilutions (100% DMSO) were added to 9 μL MAGL in assay buffer (50 mM TRIS (GIBCO, 15567-027), 1 mM EDTA (Fluka, 03690-100 ml), 0.01% (v/v) Tween. After shaking, the plate was incubated for 15 min at RT. To start the reaction, 10 μL 2-arachidonoylglycerol in assay buffer was added. The final concentrations in the assay was 50 pM MAGL and 8 μM 2-arachidonoylglyerol. After shaking and 30 min incubation at RT, the reaction was quenched by the addition of 40 μL of acetonitrile containing 4 μM of d8-arachidonic acid. The amount of arachidonic acid was traced by an online SPE system (Agilent Rapidfire) coupled to a triple quadrupole mass spectrometer (Agilent 6460). A C18 SPE cartridge (G9205A) was used in an acetonitrile/water liquid setup. The mass spectrometer was operated in negative electrospray mode following the mass transitions 303.1→259.1 for arachidonic acid and 311.1→267.0 for d8-arachidonic acid. The activity of the compounds was calculated based on the ratio of intensities [arachidonic acid/d8-arachidonic acid].
For O=C1CO[C@H]2CCN(C(=O)N3C[C@H]4C[C@@H]3C[C@@H]4OCc3cc4c(cn3)CCCC4)C[C@H]2N1 (relative stereo) [Example 9, (4aR,8aS)-6-[rel-(1R,4R,5S)-5-(5,6,7,8-tetrahydroisoquinolin-3-ylmethoxy)-2-azabicyclo[2.2.1]heptane-2-carbonyl]-4,4a,5,7,8,8a-hexahydropyrido[4,3-b][1,4]oxazin-3-one], the IC50 was 76 nM.
In the case of O=C1CO[C@H]2CCN(C(=O)N3C[C@@H]4C[C@H](OCc5ccc(C(F)(F)F)cc5F)[C@H]3C4)C[C@H]2N1 (relative stereo) [Example 18, (4aR,8aS)-6-[rel-(1R,4S,6S)-6-[[2-fluoro-4-(trifluoromethyl)phenyl]methoxy]-2-azabicyclo[2.2.1]heptane-2-carbonyl]-4,4a,5,7,8,8a-hexahydropyrido[4,3-b][1,4]oxazin-3-one], the IC50 is reported as 1050 nM.
O=C1CO[C@H]2CCN(C(=O)N3C[C@H]4C[C@@H]3[C@H](OCc3ccc(C(F)(F)F)cc3F)C4)C[C@H]2N1 (relative stereo) [Example 19, (4aR,8aS)-6-[rel-(1R,4S,6R)-6-[[2-fluoro-4-(trifluoromethyl)phenyl]methoxy]-2-azabicyclo[2.2.1]heptane-2-carbonyl]-4,4a,5,7,8,8a-hexahydropyrido[4,3-b][1,4]oxazin-3-one] showed an IC50 of 1140 nM.
Compound O=C1CO[C@H]2CCN(C(=O)N3CC4CC(Oc5ccccc5Cl)CC4C3)C[C@H]2N1 (stereo partly drawn) [Example 1, (4aR,8aS)-6-(5-(2-chlorophenoxy)-3,3a,4,5,6,6a-hexahydro-1H-cyclopenta[c]pyrrole-2-carbonyl)-4,4a,5,7,8,8a-hexahydropyrido[4,3-b][1,4]oxazin-3-one] has an IC50 of 8.9 nM.
With Cc1ccccc1OC1CC2CN(C(=O)N3CC[C@@H]4OCC(=O)N[C@@H]4C3)CC2C1 (stereo partly drawn) [Example 2, (4aR,8aS)-6-(5-(2-methylphenoxy)-3,3a,4,5,6,6a-hexahydro-1H-cyclopenta[c]pyrrole-2-carbonyl)-4,4a,5,7,8,8a-hexahydropyrido[4,3-b][1,4]oxazin-3-one] the IC50 was 19.8 nM.
O=C1CO[C@H]2CCN(C(=O)N3CC4CN(S(=O)(=O)c5ccccc5)CC4C3)C[C@H]2N1 (stereo partly drawn) [Example 3, (4aR,8aS)-6-(5-(benzenesulfonyl)-1,3,3a,4,6,6a-hexahydropyrrolo[3,4-c]pyrrole-2-carbonyl)-4,4a,5,7,8,8a-hexahydropyrido[4,3-b][1,4]oxazin-3-one] was tested, and the IC50 was 2280 nM.
O=C1CO[C@H]2CCN(C(=O)N3CC4CN(S(=O)(=O)c5ccc(C(F)(F)F)cc5)CC4C3)C[C@H]2N1 (stereo partly drawn) [Example 4, (4aR,8aS)-6-(5-[4-(trifluoromethyl)phenyl]sulfonyl-1,3,3a,4,6,6a-hexahydropyrrolo[3,4-c]pyrrole-2-carbonyl)-4,4a,5,7,8,8a-hexahydropyrido[4,3-b][1,4]oxazin-3-one] gave an IC50 of 929 nM.
In the case of O=C1CO[C@H]2CCN(C(=O)N3CC4CN(S(=O)(=O)c5ccc(F)cc5Cl)CC4C3)C[C@H]2N1 (stereo partly drawn) [Example 5, (4aR,8aS)-6-(5-(2-chloro-4-fluoro-phenyl)sulfonyl-1,3,3a,4,6,6a-hexahydropyrrolo[3,4-c]pyrrole-2-carbonyl)-4,4a,5,7,8,8a-hexahydropyrido[4,3-b][1,4]oxazin-3-one], the IC50 is reported as 676 nM.
For O=C1CO[C@H]2CCN(C(=O)N3C[C@@H]4[C@H](C3)[C@H]4c3ccn(-c4ccc(F)cc4)n3)C[C@H]2N1 [Example 6, (4aR,8aS)-6-[(1R,5S,6r)-6-[1-(4-fluorophenyl)pyrazol-3-yl]-3-azabicyclo[3.1.0]hexane-3-carbonyl]-4,4a,5,7,8,8a-hexahydropyrido[4,3-b][l,4]oxazin-3-one], the IC50 was 261 nM.
For O=C1CO[C@H]2CCN(C(=O)N3C[C@@H]4[C@H](C3)[C@H]4c3ccn(-c4ccc(F)c(C(F)(F)F)c4)n3)C[C@H]2N1 [Example 7, (4aR,8aS)-6-[(1R,5S,6r)-6-[1-[4-fluoro-3-(trifluoromethyl)phenyl]pyrazol-3-yl]-3-azabicyclo[3.1.0]hexane-3-carbonyl]-4,4a,5,7,8,8a-hexahydropyrido[4,3-b][1,4]oxazin-3-one], the IC50 was 45.3 nM.
O=C1CO[C@H]2CCN(C(=O)N3C[C@@H]4[C@H](C3)[C@H]4c3ccn(-c4ccc(F)cc4Cl)n3)C[C@H]2N1 [Example 8, (4aR,8aS)-6-[(1R,5S,6r)-6-[1-(2-chloro-4-fluoro-phenyl)pyrazol-3-yl]-3-azabicyclo[3.1.0]hexane-3-carbonyl]-4,4a,5,7,8,8a-hexahydropyrido[4,3-b][1,4]oxazin-3-one] was tested, and the IC50 was 112 nM.
With O=C1CO[C@H]2CCN(C(=O)N3C[C@@H]4[C@@H](COc5ccc(F)cc5Cl)[C@@H]4C3)C[C@H]2N1 [Example 12, (4aR,8aS)-6-[(1R,5S,6r)-6-[(2-chloro-4-fluoro-phenoxy)methyl]-3-azabicyclo[3.1.0]hexane-3-carbonyl]-4,4a,5,7,8,8a-hexahydropyrido[4,3-b][1,4]oxazin-3-one] the IC50 was 6.3 nM.
O=C1CO[C@H]2CCN(C(=O)N3CC4CCC(C3)C4COc3ccc(F)cc3Cl)C[C@H]2N1 (stereo partly drawn) [Example 13, (4aR,8aS)-6-[8-[(2-chloro-4-fluoro-phenoxy)methyl]-3-azabicyclo[3.2.1]octane-3-carbonyl]-4,4a,5,7,8,8a-hexahydropyrido[4,3-b][1,4]oxazin-3-one] gave an IC50 of 5.1 nM.
O=C1CO[C@H]2CCN(C(=O)N3CC4CC(Oc5ccc(F)cc5Cl)CC4C3)C[C@H]2N1 (stereo partly drawn) [Example 14, (4aR,8aS)-6-[5-(2-chloro-4-fluoro-phenoxy)-3,3a,4,5,6,6a-hexahydro-1H-cyclopenta[c]pyrrole-2-carbonyl]-4,4a,5,7,8,8a-hexahydropyrido[4,3-b][1,4]oxazin-3-one] showed an IC50 of 3.5 nM.
O=C1CO[C@H]2CCN(C(=O)N3CC4CC(OCc5ccc(F)cc5Cl)CC4C3)C[C@H]2N1 (stereo partly drawn) [Example 15, (4aR,8aS)-6-[5-[(2-chloro-4-fluoro-phenyl)methoxy]-3,3a,4,5,6,6a-hexahydro-1H-cyclopenta[c]pyrrole-2-carbonyl]-4,4a,5,7,8,8a-hexahydropyrido[4,3-b][1,4]oxazin-3-one] gave an IC50 of 11 nM.
In the case of O=C1CO[C@H]2CCN(C(=O)N3CC4CC(OCc5ccc(C(F)(F)F)cc5F)CC4C3)C[C@H]2N1 (stereo partly drawn) [Example 16, (4aR,8aS)-6-[5-[[2-fluoro-4-(trifluoromethyl)phenyl]methoxy]-3,3a,4,5,6,6a-hexahydro-1H-cyclopenta[c]pyrrole-2-carbonyl]-4,4a,5,7,8,8a-hexahydropyrido[4,3-b][1,4]oxazin-3-one], the IC50 is reported as 85.9 nM.
Compound O=C1CO[C@H]2CCN(C(=O)N3CC4CC(Oc5ccc(C(F)(F)F)cc5F)CC4C3)C[C@H]2N1 (stereo partly drawn) [Example 17, (4aR,8aS)-6-[5-[2-fluoro-4-(trifluoromethyl)phenoxy]-3,3a,4,5,6,6a-hexahydro-1H-cyclopenta[c]pyrrole-2-carbonyl]-4,4a,5,7,8,8a-hexahydropyrido[4,3-b][1,4]oxazin-3-one] has an IC50 of 4.7 nM.
In the case of O=C1CO[C@H]2CCN(C(=O)N3CC4CC(C3)C4OCc3ccc(C(F)(F)F)cc3F)C[C@H]2N1 (stereo partly drawn) [Example 22, (4aR,8aS)-6-[6-[[2-fluoro-4-(trifluoromethyl)phenyl]methoxy]-3-azabicyclo[3.1.1]heptane-3-carbonyl]-4,4a,5,7,8,8a-hexahydropyrido[4,3-b][1,4]oxazin-3-one], the IC50 is reported as 217 nM.
